Measured values from ChEMBL document CHEMBL5356935, “Discovery of rigid biphenyl Plasmodium falciparum DHFR inhibitors using a fragment linking strategy” (RSC Med Chem, 2023).
In brackets after ≈: the same amount, converted by molar mass. Activity calls are given as the source filed them. The calls are words filed in the database; no cut-off is given here.

Experiments:
[1] = target: Bifunctional dihydrofolate reductase-thymidylate synthase (Plasmodium falciparum K1) (UniProt P13922); experiment: Binding affinity to Plasmodium falciparum DHFR assessed as binding constant (kon) by surface plasmon resonance analysis
Sequence of Bifunctional dihydrofolate reductase-thymidylate synthase (Plasmodium falciparum K1) (P13922 whole entry, looked up): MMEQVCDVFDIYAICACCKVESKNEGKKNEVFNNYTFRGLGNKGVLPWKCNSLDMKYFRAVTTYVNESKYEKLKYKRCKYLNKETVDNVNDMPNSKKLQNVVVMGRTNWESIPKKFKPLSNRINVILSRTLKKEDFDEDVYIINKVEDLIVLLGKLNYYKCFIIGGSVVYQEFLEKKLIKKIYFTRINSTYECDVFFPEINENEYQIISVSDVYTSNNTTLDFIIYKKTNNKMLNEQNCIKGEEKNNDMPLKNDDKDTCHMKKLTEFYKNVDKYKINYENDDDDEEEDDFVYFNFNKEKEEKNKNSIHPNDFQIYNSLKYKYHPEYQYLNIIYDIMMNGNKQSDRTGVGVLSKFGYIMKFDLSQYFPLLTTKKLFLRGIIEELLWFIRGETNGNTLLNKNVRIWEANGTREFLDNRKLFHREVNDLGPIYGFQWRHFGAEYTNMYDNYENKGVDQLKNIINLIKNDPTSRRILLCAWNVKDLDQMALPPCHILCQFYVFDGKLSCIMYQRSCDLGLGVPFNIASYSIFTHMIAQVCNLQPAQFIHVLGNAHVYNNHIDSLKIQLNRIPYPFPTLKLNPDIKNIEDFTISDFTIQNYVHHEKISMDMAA

[2] = target: Bifunctional dihydrofolate reductase-thymidylate synthase (Plasmodium falciparum K1) (UniProt P13922); experiment: Binding affinity to Plasmodium falciparum DHFR assessed as binding constant (koff) by surface plasmon resonance analysis
[3] = target: Bifunctional dihydrofolate reductase-thymidylate synthase (Plasmodium falciparum K1) (UniProt P13922); experiment: Inhibition of wild type Plasmodium falciparum DHFR using DHF as substrate at 500 uM in presence of NADPH by UV-Vis spectrometry analysis
[4] = target: T1, Dihydrofolate reductase (Homo sapiens) (UniProt P00374); experiment: Inhibition of human DHFR at 500 uM by UV-Vis spectrometry analysis
T1 sequence (whole entry): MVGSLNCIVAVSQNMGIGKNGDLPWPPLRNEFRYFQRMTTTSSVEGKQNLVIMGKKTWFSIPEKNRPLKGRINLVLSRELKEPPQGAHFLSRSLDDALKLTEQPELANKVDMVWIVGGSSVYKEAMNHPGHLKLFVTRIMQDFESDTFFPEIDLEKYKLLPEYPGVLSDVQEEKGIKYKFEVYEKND

[5] = tested on: Plasmodium falciparum; experiment: Inhibition of Plasmodium falciparum DHFR N51I/C59R/S108N/I164L quadruple mutant using DHF as substrate at 500 uM in presence of NADPH by UV-Vis spectrometry analysis
[6] = tested on: Plasmodium falciparum; experiment: Inhibition of Plasmodium falciparum DHFR N51I/C59R/S108N/I164L quadruple mutant using DHF as substrate at 500 uM in presence of NADPH by UV-Vis spectrometry analysis relative to control
[7] = tested on: Plasmodium falciparum; experiment: Binding affinity to Plasmodium falciparum apo-DHFR N51I/C59R/S108N/I164L quadruple mutant assessed as change in melting temperature by […] analysis
[8] = Inhibition of Plasmodium falciparum DHFR N51I/C59R/S108N/I164L quadruple mutant using DHF as substrate assessed as inhibition constant in presence of NADPH by UV-Vis spectrometry analysis
[9] = Distribution coefficient, log D of compound in n-octanol and saturated PBS at pH 7.4 at 100 uM incubated for 2 hrs under shaking condition by HPLC analysis; type: physicochemical
[10] = Kinetic solubility of the compound at pH 2.0 at 200 uM incubated for 2 hrs under shaking condition by HPLC analysis; type: physicochemical; conditions: buffer, read-out: Kinetic_solubility
[11] = tested on: Plasmodium falciparum; experiment: Antiplasmodial activity against PYR-resistant Plasmodium falciparum V1/S encoding QM DHFR infected in human erythrocytes assessed as inhibition of parasite growth by [3H]-hypoxanthine incorporation assay; type: functional, organism-based; conditions: Erythrocyte
[12] = Kinetic solubility of the compound at pH 7.4 at 200 uM incubated for 2 hrs under shaking condition by HPLC analysis; type: physicochemical; conditions: buffer, read-out: Kinetic_solubility
[13] = Kinetic solubility of the compound at pH 6.5 at 200 uM incubated for 2 hrs under shaking condition by HPLC analysis; type: physicochemical; conditions: buffer, read-out: Kinetic_solubility
[14] = Kinetic solubility of the compound at pH 4.5 at 200 uM incubated for 2 hrs under shaking condition by HPLC analysis; type: physicochemical; conditions: buffer, read-out: Kinetic_solubility
[15] = target: T2, Dihydrofolate reductase (Homo sapiens, UniProt P00374); experiment: Inhibition of human DHFR using DHF as substrate assessed as inhibition constant in presence of NADPH by UV-Vis spectrometry analysis
T2 sequence (P00374 whole entry): T1 sequence (whole entry)

[16] = Metabolic stability in human liver microsomes assessed as intrinsic clearance measured upto 60 mins in presence of NADPH by LC-MS/MS analysis; type: ADME, Microsome; conditions: read-out: CLH
[17] = Half life in human; type: ADME
[18] = tested on: Plasmodium falciparum; experiment: Antiplasmodial activity against PYR-sensitive Plasmodium falciparum TM4/8.2 encoding WT DHFR infected in human erythrocytes assessed as inhibition of parasite growth by [3H]-hypoxanthine incorporation assay; type: functional, organism-based; conditions: TM4/8.2, Erythrocyte
[19] = Metabolic stability in rat liver microsomes assessed as intrinsic clearance measured upto 60 mins in presence of NADPH by LC-MS/MS analysis; type: ADME, Microsome; conditions: read-out: CLH
[20] = Cytotoxicity against African green monkey Vero cells assessed as cell growth inhibition incubated for 72 hrs by sulforhodamine B assay; type: toxicity, cell-based, Chlorocebus sabaeus
[21] = target: Bifunctional dihydrofolate reductase-thymidylate synthase (Plasmodium falciparum K1, UniProt P13922); experiment: Inhibition of wild type Plasmodium falciparum DHFR using DHF as substrate assessed as inhibition constant in presence of NADPH by UV-Vis spectrometry analysis
Sequence of Bifunctional dihydrofolate reductase-thymidylate synthase (P13922 whole entry): as the sequence (P13922 whole entry, looked up) above

[22] = target: Bifunctional dihydrofolate reductase-thymidylate synthase (Plasmodium falciparum K1) (UniProt P13922); experiment: Inhibition of wild type Plasmodium falciparum DHFR using DHF as substrate at 500 uM in presence of NADPH by UV-Vis spectrometry analysis relative to control
[23] = target: Bifunctional dihydrofolate reductase-thymidylate synthase (Plasmodium falciparum K1) (UniProt P13922); experiment: Binding affinity to Plasmodium falciparum DHFR assessed as faster binding and release kinetics by surface plasmon resonance analysis
[24] = tested on: Plasmodium falciparum; experiment: Inhibition of Plasmodium falciparum DHFR N51I/C59R/S108N/I164L quadruple mutant assessed as fold change in inhibition in presence of 2,4-diamino-6-ethylpyrimidin-5-ol
[25] = tested on: Plasmodium falciparum; experiment: Binding affinity to Plasmodium falciparum DHFR N51I/C59R/S108N/I164L quadruple mutant assessed as change in melting temperature in presence of NADPH by […] analysis

O=C(O)c1cccc(-c2ccccc2)n1
K [1]: 9.99 M⁻¹ s⁻¹
K [2]: 0.013 s⁻¹
inhibition [3]: inactive
inhibition [4]: inactive
inhibition [5]: inactive

O=C(O)c1ccc(-c2ccccc2)cn1
inhibition [6]: 7%
ΔTm [7]: -1.2 °C
K [1]: 24.5 M⁻¹ s⁻¹
K [2]: 0.037 s⁻¹
inhibition [3]: inactive
inhibition [4]: inactive

COc1cc(Cc2cnc(N)nc2N)cc(OC)c1OC [TRIMETHOPRIM]
Ki [8]: 0.0491 µM

CCc1nc(N)nc(N)c1OCCCOc1ccccc1CCC(=O)O
logD at 2 h, 100 µM [9]: -0.095
solubility kinetic at 2 h, 200 µM [10]: 207 µM (≈ 74.6 µg/mL)
IC50 [11]: 0.056 µM
solubility kinetic at 2 h, 200 µM [12]: 201 µM (≈ 72.5 µg/mL)
solubility kinetic at 2 h, 200 µM [13]: 204 µM (≈ 73.5 µg/mL)
solubility kinetic at 2 h, 200 µM [14]: 200 µM (≈ 72 µg/mL)
Ki [15]: 0.0174 µM
microsomal CLint [16]: < 3 µL/min/mg
half-life [17]: < 20 h
IC50 [18]: 0.005 µM
microsomal CLint [19]: < 3 µL/min/mg
Ki [8]: 0.00054 µM
IC50 at 72 h [20]: > 100 µM

CCc1nc(N)nc(N)c1Cc1cccc(-c2ccc(C(=O)O)cc2)c1.Cl.Cl
solubility kinetic at 2 h, 200 µM [10]: 188 µM
IC50 [11]: > 50 µM
solubility kinetic at 2 h, 200 µM [12]: 30.8 µM
Ki [21]: 0.00048 µM
solubility kinetic at 2 h, 200 µM [13]: 19.2 µM
solubility kinetic at 2 h, 200 µM [14]: 19.2 µM
Ki [15]: 0.022 µM
IC50 [18]: 8.55 µM
Ki [8]: 0.0033 µM
IC50 at 72 h [20]: > 50 µM

COc1ccccc1-c1ccc(C(=O)O)cc1
inhibition [6]: 24%
inhibition [22]: 14.6%
Activity [23]: Active
inhibition [4]: inactive
fold change (FC) [24]: 2.7

O=C(O)c1ccc(-c2cccnc2)cc1
inhibition [6]: 2.4%
inhibition [22]: 8.5%
K [1]: 4.18 M⁻¹ s⁻¹
K [2]: 0.001 s⁻¹
inhibition [4]: inactive

O=C(O)c1cccc(-c2ccncc2)c1
inhibition [6]: 19.5%
K [1]: 6.41 M⁻¹ s⁻¹
inhibition [3]: inactive
inhibition [4]: inactive
ΔTm [25]: 0.8 °C

O=C(O)c1ccc(-c2ccc(O)cc2)cc1
inhibition [6]: 24.9%
inhibition [22]: 21.1%
K [1]: 14.8 M⁻¹ s⁻¹
K [2]: 0.011 s⁻¹
inhibition [4]: inactive

COc1cccc(-c2ccc(C(=O)O)o2)c1
inhibition [22]: 12.7%
K [1]: 9.51 M⁻¹ s⁻¹
K [2]: 0.014 s⁻¹
inhibition [4]: inactive
inhibition [5]: inactive

O=C(O)c1ccc(-n2cccc2)cc1
inhibition [6]: 19.4%
inhibition [22]: 8%
K [1]: 14.6 M⁻¹ s⁻¹
K [2]: 0.008 s⁻¹
inhibition [4]: inactive

O=C(O)c1ccccc1-c1ccncc1
inhibition [3]: inactive
Activity [23]: Active
inhibition [4]: inactive
inhibition [5]: inactive

O=C(O)c1ccc(-c2ccncc2)cc1
inhibition [6]: 10.1%
inhibition [22]: 2.93%
K [1]: 16.4 M⁻¹ s⁻¹
K [2]: 0.001 s⁻¹
inhibition [4]: inactive

Cc1oc(-c2ccccc2)cc1C(=O)O
K [1]: 6.06 M⁻¹ s⁻¹
K [2]: 0.014 s⁻¹
inhibition [3]: inactive
inhibition [4]: inactive
inhibition [5]: inactive
